33 compounds from patent US7411083B2, “Substituted acetic acid derivatives” (Wyeth, priority 2003, dated 2008) can be followed below.

Molecules are shown by their SMILES.

For this experiment, the target named is T1, recombinant human plasminogen activator inhibitor-1 (PAI-1) (Homo sapiens, UniProt P05121).
T1 construct: purchased Molecular Innovations, Royal Oak, Mich
T1 sequence (P05121 24-402): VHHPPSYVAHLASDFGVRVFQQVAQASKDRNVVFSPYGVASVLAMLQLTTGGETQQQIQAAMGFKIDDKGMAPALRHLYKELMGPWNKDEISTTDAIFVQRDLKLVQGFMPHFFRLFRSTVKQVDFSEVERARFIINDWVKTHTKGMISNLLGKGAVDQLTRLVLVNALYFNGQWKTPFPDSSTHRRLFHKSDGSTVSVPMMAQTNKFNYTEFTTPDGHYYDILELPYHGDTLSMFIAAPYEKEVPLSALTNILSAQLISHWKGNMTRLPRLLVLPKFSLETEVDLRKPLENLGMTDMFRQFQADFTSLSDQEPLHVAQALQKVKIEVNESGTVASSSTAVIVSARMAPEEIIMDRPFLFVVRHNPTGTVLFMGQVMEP
Put plainly: Screening for PAI-1 inhibition (residual tPA activity, Spectrozyme-tPA chromogenic substrate). The format is biochemical. To be noted: test compound at 100 Um; pH 6.6 buffer, 140 nM PAI-1, 70 nM tPA. How it is done:
Screening for PAI-1 inhibition. Test compounds are dissolved in DMSO at a final concentration of 10 Mm, then diluted 100× in physiologic buffer. The inhibitory assay is initiated by the addition of the test compound (1-100 μM final concentration, maximum DMSO concentration of 0.2%) in a Ph 6.6 buffer containing 140 Nm recombinant human plasminogen activator inhibitor-1 (PAI-1; Molecular Innovations, Royal Oak, Mich.). Following a 1 hour incubation at room temperature, 70 Nm of recombinant human tissue plasminogen activator (Tpa) is added, and the combination of the test compound, PAI-1 and Tpa is incubated for an additional 30 minutes. Following the second incubation, Spectrozyme-Tpa (American Diagnostica, Greenwich, Conn.), a chromogenic substrate for Tpa, is added and absorbance read at 405 nm at 0 and 60 minutes. Relative PAI-1 inhibition is equal to the residual Tpa activity in the presence of the test compounds and PAI-1. Control treatments include the complete inhibition of Tpa by PAI-1 at the molar ratio employed (2:1), and the absence of any effect of the test compound on Tpa alone.
The term inhibition denotes the change of the read-out against control, counted positive when it falls. As to `O=C(O)CO/N=C/c1ccc(-c2cccc(OCc3ccc(C(F)(F)F)cc3)c2)cc1` [Compound 88, ({[(1E)-(3′-{[4-(trifluoromethyl)benzyl]oxy}-1,1′-biphenyl-4-yl)methylidene]amino}oxy)acetic acid], the inhibition at 100 µM came to 34%.
Take `Cc1ccc(COc2ccc(-c3cccc(/C=N/OCC(=O)O)c3)cc2)cc1` [Compound 85, {[((1E)-{4′-[(4-methylbenzyl)oxy]-1,1′-biphenyl-3-yl}methylidene)amino]oxy}acetic acid]: the inhibition at 100 µM is 34%.
Consider `O=C(O)CO/N=C/c1cccc(-c2ccc(OCc3cccc(C(F)(F)F)c3)cc2)c1` [Compound 80, ({[(1E)-(4′-{[3-(trifluoromethyl)benzyl]oxy}-1,1′-biphenyl-3-yl)methylidene]amino}oxy)acetic acid], for which the inhibition at 100 µM turned out to be 78%.
In the case of `O=C(O)CO/N=C/c1cc(OCc2ccc(F)cc2)ccc1OCc1ccc(F)cc1` [Compound 153, {[((1E)-{2,5-bis[(4-fluorobenzyl)oxy]phenyl}methylidene)amino]oxy}acetic acid] it was 96%; in that of `O=C(O)CO/N=C/c1cccc(OCc2cccc(Cl)c2)c1OCc1cccc(Cl)c1` [Compound 136, {[((1E)-{2,3-bis[(3-chlorobenzyl)oxy]phenyl}methylidene)amino]oxy}acetic acid], 80%; in that of `O=C(O)CO/N=C/c1cccc(-c2cccc(OCc3cc(C(F)(F)F)cc(C(F)(F)F)c3)c2)c1` [Compound 61, ({[(1E)-(3′-{[3,5-bis(trifluoromethyl)benzyl]oxy}-1,1′-biphenyl-3-yl)methylidene]amino}oxy)acetic acid], 74%.
In the case of `O=C(O)CO/N=C/c1c[nH]c2ccc(OCc3ccccc3Cl)cc12` [Compound 30, {[((1E)-{5-[(2-chlorobenzyl)oxy]-1H-indol-3-yl}methylidene)amino]oxy}acetic acid] it was 11%.
With `Cc1ccc(COc2cccc(-c3ccc(/C=N/OCC(=O)O)cc3)c2)cc1` [Compound 99, {[((1E)-{3′-[(4-methylbenzyl)oxy]-1,1′-biphenyl-4-yl}methylidene)amino]oxy}acetic acid], the inhibition at 100 µM came out at 84%.
As to `CC(C)(C)c1ccc(COc2cccc(/C=N/OCC(=O)O)c2OCc2ccc(C(C)(C)C)cc2)cc1` [Compound 135, {[((1E)-{2,3-bis[(4-tert-butylbenzyl)oxy]phenyl}methylidene)amino]oxy}acetic acid], the inhibition at 100 µM stood at 58%.
Take `O=C(O)CO/N=C/c1ccc(OCc2ccc(Br)cc2)cc1OCc1ccc(Br)cc1` [Compound 125, {[((1E)-{2,4-bis[(4-bromobenzyl)oxy]phenyl}methylidene)amino]oxy}acetic acid]: the inhibition at 100 µM is 90%.
In the case of `O=C(O)CO/N=C/c1ccc(OCc2ccc(F)cc2)c(OCc2ccc(F)cc2)c1` [Compound 113, {[((1E)-{3,4-bis[(4-fluorobenzyl)oxy]phenyl}methylidene)amino]oxy}acetic acid] it was 91%; in that of `O=C(O)CO/N=C/c1cn(Cc2ccccc2)c2ccc(OCc3ccccc3)cc12` [Compound 41, [({(1E)-[1-benzyl-5-(benzyloxy)-1H-indol-3-yl]methylidene}amino)oxy]acetic acid], 96%.
As to `C=CCn1cc(/C=N/OCC(=O)O)c2cc(OCc3ccc(C(C)(C)C)cc3)ccc21` [Compound 4, {[((1E)-{1-allyl-5-[(4-tert-butylbenzyl)oxy]-1H-indol-3-yl}methylidene)amino]oxy}acetic acid], the inhibition at 100 µM came out at 83%.
Regarding `O=C(O)CO/N=C/c1ccc(C#CCOc2ccc(Br)cc2)cc1` [Compound 163, {[((1E)-{4-[3-(4-bromophenoxy)prop-1-ynyl]phenyl}methylidene)amino]oxy}acetic acid], the inhibition at 100 µM stood at 65%.
`CC(C)(C)c1ccc(OCC#Cc2ccc(/C=N/OCC(=O)O)cc2)cc1` [Compound 162, {[((1E)-{4-[3-(4-tert-butylphenoxy)prop-1-ynyl]phenyl}methylidene)amino]oxy}acetic acid]: the inhibition at 100 µM came to 51%.
Turning to `Cc1cccc(COc2ccc(-c3ccc(/C=N/OCC(=O)O)cc3)cc2)c1` [Compound 110, {[((1E)-{4′-[(3-methylbenzyl)oxy]-1,1′-biphenyl-4-yl}methylidene)amino]oxy}acetic acid], the inhibition at 100 µM stood at 6%.
With `Cc1cccc(COc2cccc(-c3ccc(/C=N/OCC(=O)O)cc3)c2)c1` [Compound 100, {[((1E)-{3′-[(3-methylbenzyl)oxy]-1,1′-biphenyl-4-yl}methylidene)amino]oxy}acetic acid], the inhibition at 100 µM amounted to 63%.
For `C=CCn1cc(/C=N/OCC(=O)O)c2cc(OCc3ccccc3Cl)ccc21` [Compound 49, {[((1E)-{1-allyl-5-[(2-chlorobenzyl)oxy]-1H-indol-3-yl}methylidene)amino]oxy}acetic acid], the inhibition at 100 µM was determined as 93%.
For `O=C(O)CO/N=C/c1cccc(-c2cccc(OCc3cccc(C(F)(F)F)c3)c2)c1` [Compound 65, ({[(1E)-(3′-{[3-(trifluoromethyl)benzyl]oxy}-1,1′-biphenyl-3-yl)methylidene]amino}oxy)acetic acid] the value was 84%.
Turning to `O=C(O)CO/N=C/c1cccc(OCc2ccc(C(F)(F)F)cc2)c1OCc1ccc(C(F)(F)F)cc1` [Compound 134, ({[(1E)-(2,3-bis{[4-(trifluoromethyl)benzyl]oxy}phenyl)methylidene]amino}oxy)acetic acid], the inhibition at 100 µM stood at 100%.
Take `O=C(O)CO/N=C/c1cn(Cc2ccccc2)c2ccc(OCc3cccc(Cl)c3)cc12` [Compound 18, {[((1E)-{1-benzyl-5-[(3-chlorobenzyl)oxy]-1H-indol-3-yl}methylidene)amino]oxy}acetic acid]: the inhibition at 100 µM worked out at 84%.
For `O=C(O)CO/N=C/c1cccc(OCc2ccc(F)c(F)c2)c1OCc1ccc(F)c(F)c1` [Compound 141, {[((1E)-{2,3-bis[(3,4-difluorobenzyl)oxy]phenyl}methylidene)amino]oxy}acetic acid], the inhibition at 100 µM was determined as 48%.
Regarding `O=C(O)CO/N=C/c1cccc(-c2cccc(OCc3ccc(C(F)(F)F)cc3)c2)c1` [Compound 58, ({[(1E)-(3′-{[4-(trifluoromethyl)benzyl]oxy}-1,1′-biphenyl-3-yl)methylidene]amino}oxy)acetic acid], the inhibition at 100 µM came out at 84%.
On to `O=C(O)CO/N=C/c1ccc(-c2ccc(OCc3cccc(Cl)c3)cc2)cc1` [Compound 104, {[((1E)-{4′-[(3-chlorobenzyl)oxy]-1,1′-biphenyl-4-yl}methylidene)amino]oxy}acetic acid], for which the inhibition at 100 µM amounted to 5%.
`O=C(O)CO/N=C/c1cccc(OCc2ccc(F)cc2)c1OCc1ccc(F)cc1` [Compound 133, {[((1E)-{2,3-bis[(4-fluorobenzyl)oxy]phenyl}methylidene)amino]oxy}acetic acid]: the inhibition at 100 µM was 20%.
On to `O=C(O)CO/N=C/c1cn(Cc2ccccc2)c2ccc(OCc3cc(C(F)(F)F)cc(C(F)(F)F)c3)cc12` [Compound 12, ({[(1E)-(1-benzyl-5-{[3,5-bis(trifluoromethyl)benzyl]oxy}-1H-indol-3-yl)methylidene]amino}oxy)acetic acid], for which the inhibition at 100 µM came to 57%.
For `Cc1ccc(COc2ccc(/C=N/OCC(=O)O)c(OCc3ccc(C)cc3)c2)cc1` [Compound 122, {[((1E)-{2,4-bis[(4-methylbenzyl)oxy]phenyl}methylidene)amino]oxy}acetic acid], the inhibition at 100 µM came out at 87%.
As to `C=CCn1cc(/C=N/OCC(=O)O)c2cc(OCc3ccc(C)cc3)ccc21` [Compound 19, {[((1E)-{1-allyl-5-[(4-methylbenzyl)oxy]-1H-indol-3-yl}methylidene)amino]oxy}acetic acid], the inhibition at 100 µM worked out at 73%.
As for `C=CCn1cc(/C=N/OCC(=O)O)c2cc(OCc3cc(C(F)(F)F)cc(C(F)(F)F)c3)ccc21` [Compound 10, ({[(1E)-(1-allyl-5-{[3,5-bis(trifluoromethyl)benzyl]oxy}-1H-indol-3-yl)methylidene]amino}oxy)acetic acid], the inhibition at 100 µM turned out to be 86%.
Regarding `O=C(O)CO/N=C/c1ccc(OCc2ccc(C(F)(F)F)cc2)c(OCc2ccc(C(F)(F)F)cc2)c1` [Compound 114, ({[(1E)-(3,4-bis{[4-(trifluoromethyl)benzyl]oxy}phenyl)methylidene]amino}oxy)acetic acid], the inhibition at 100 µM was 93%.
As to `O=C(O)CO/N=C/c1ccc(OCc2cccc(Br)c2)cc1OCc1cccc(Br)c1` [Compound 128, {[((1E)-{2,4-bis[(3-bromobenzyl)oxy]phenyl}methylidene)amino]oxy}acetic acid], the inhibition at 100 µM came out at 91%.
With `CC(C)(C)c1ccc(COc2ccc(/C=N/OCC(=O)O)cc2OCc2ccc(C(C)(C)C)cc2)cc1` [Compound 112, {[((1E)-{3,4-bis[(4-tert-butylbenzyl)oxy]phenyl}methylidene)amino]oxy}acetic acid], the inhibition at 100 µM turned out to be 65%.
For the compound `C#CCn1cc(/C=N/OCC(=O)O)c2cc(OCc3ccc(Cl)cc3)ccc21` [Compound 44, [({(1E)-[5-[(4-chlorobenzyl)oxy]-1-(2-propynyl)-1H-indol-3-yl]methylidene}amino)oxy]acetic acid], the inhibition at 100 µM came out at 83%.
